{"source": "patent US8168656B2", "about": "“Indoleacetic acid and indenacetic acid derivatives as therapeutic agents with reduced gastrointestinal toxicity” (Vanderbilt University, priority 2009, dated 2012)", "test_in_all_cases": "Time-dependent IC50 COX inhibition assay", "key": {"wild type oCOX-1": {"target": "T1, wild type oCOX-1 (Ovis aries, UniProt P05979)", "T1 construct": "Ram seminal vesicles were purchased from Oxford Biomedical Research; tissue Oxford Biomedical Research; host or cells: ram seminal vesicles", "T1 sequence (P05979 25-600)": "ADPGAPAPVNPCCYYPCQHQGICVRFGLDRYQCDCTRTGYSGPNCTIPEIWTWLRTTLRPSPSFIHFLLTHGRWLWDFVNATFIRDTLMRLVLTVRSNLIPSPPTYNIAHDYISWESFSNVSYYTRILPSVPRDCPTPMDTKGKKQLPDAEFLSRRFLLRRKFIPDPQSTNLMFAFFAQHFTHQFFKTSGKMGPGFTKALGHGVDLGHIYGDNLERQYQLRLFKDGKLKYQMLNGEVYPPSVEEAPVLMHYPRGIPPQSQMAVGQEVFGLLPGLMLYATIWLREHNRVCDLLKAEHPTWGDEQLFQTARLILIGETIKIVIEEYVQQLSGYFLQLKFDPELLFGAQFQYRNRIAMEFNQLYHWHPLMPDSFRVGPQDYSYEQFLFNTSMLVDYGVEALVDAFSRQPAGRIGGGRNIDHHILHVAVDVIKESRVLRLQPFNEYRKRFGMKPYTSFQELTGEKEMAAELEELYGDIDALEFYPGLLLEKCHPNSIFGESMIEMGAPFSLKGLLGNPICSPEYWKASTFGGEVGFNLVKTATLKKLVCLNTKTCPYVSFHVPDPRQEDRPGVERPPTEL", "format": "biochemical, ovine", "experimental": "(§1) These mutated genes were used to assemble baculoviral constructs for large-scale expression in Sf9 cells. Purification of the expressed COX-2 protein was performed through traditional cellular fractionation and classical column chromatography. Activity or inhibition assays were performed in 100 mM Tris-HCl buffer containing 500 μM phenol, with hematin-reconstituted protein. Quantification of cyclooxygenase activity was performed by monitoring substrate (arachidonate or oxygen) consumption in a thermostatted cuvette at 37° C. using a polarographic electrode with a 5300 oxygen monitor (Yellow Springs Instrument Co. Inc., Yellow Springs, Ohio, United States of America). All inhibitors and substrates were solubilized in dimethyl sulfoxide (DMSO). Activity or inhibition assays were performed in 100 mM Tris-HCl buffer containing 500 μM phenol, with hematin-reconstituted protein. Maximal reaction velocity data were obtained from the linear portion of the oxygen uptake curves, and the data were analyzed by nonlinear regression with Prism 4.0 (GraphPad Software, San Diego, Calif., United States of America).\n(§2) Time-dependent inhibition reactions were performed by pre-incubating the inhibitor and enzyme for 17 minutes at 25° C., followed by 3 minutes at 37° C. prior to the addition of 50 μM [1-^14C]-AA for 30 seconds at 37° C. Assays were terminated and analyzed for substrate consumption by thin layer chromatography as previously described (Kalgutkar et al., 2000a).\nMaximal reaction velocity data were obtained from the linear portion of the oxygen uptake curves, and the data were analyzed by nonlinear regression. Instantaneous inhibition assays were performed with substrate and inhibitor added prior the initiation of the reaction by addition of protein. […]\nAssays were terminated and analyzed for substrate consumption by thin layer chromatography. […] All reactions were performed with [1-^14C]-AA for 30 seconds at 37° C.; reactions were terminated and analyzed as described above. […]"}, "mCOX-2^V349A": {"target": "T2, mCOX-2^V349A (Mus musculus, UniProt Q05769, V335A)", "T2 construct": "made in house; host or cells: Sf9 insect cells (baculovirus, pVL1393)", "T2 sequence (Q05769 18-604 V335A)": "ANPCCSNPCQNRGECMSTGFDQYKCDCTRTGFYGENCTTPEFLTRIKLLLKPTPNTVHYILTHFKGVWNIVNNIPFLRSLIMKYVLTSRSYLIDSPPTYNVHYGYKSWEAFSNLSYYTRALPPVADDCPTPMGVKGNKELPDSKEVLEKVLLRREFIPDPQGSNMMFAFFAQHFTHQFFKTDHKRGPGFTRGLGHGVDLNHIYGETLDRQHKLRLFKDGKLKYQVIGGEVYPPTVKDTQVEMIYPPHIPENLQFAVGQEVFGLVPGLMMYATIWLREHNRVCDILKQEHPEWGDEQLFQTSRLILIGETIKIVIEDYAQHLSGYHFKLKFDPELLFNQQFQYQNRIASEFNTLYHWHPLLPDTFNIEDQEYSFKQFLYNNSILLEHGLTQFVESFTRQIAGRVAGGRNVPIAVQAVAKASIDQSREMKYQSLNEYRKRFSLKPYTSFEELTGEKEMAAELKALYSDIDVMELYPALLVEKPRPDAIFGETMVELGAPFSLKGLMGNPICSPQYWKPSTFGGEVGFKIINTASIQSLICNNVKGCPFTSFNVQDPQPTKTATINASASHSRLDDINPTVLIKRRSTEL", "format": "biochemical, murine", "experimental": "as §1, §2\n(§3) Maximal reaction velocity data were obtained from the linear portion of the oxygen uptake curves, and the data were analyzed by nonlinear regression. Instantaneous inhibition assays were performed with substrate and inhibitor added prior the initiation of the reaction by addition of protein. Time-dependent screening assays were performed by pre-incubating the inhibitor and enzyme for 17 minutes at 25° C., followed by 3 minutes at 37° C. prior to the addition of 50 μM [1-^14C]-arachidonic acid (AA) for 30 seconds at 37° C.\n(§4) Assays were terminated and analyzed for substrate consumption by thin layer chromatography. […] Time-dependent COX inhibition reactions were pre-incubated at 37° C. for varying lengths of time (0-30 minutes) with various concentrations of inhibitor. All reactions were performed with [1-^14C]-AA for 30 seconds at 37° C.; reactions were terminated and analyzed as described above.\n(§5) The COX reaction was allowed to proceed for 30 seconds before termination."}, "mCOX-2^V349I": {"target": "T3, mCOX-2^V349I (Mus musculus, UniProt Q05769, V335I)", "T3 construct": "made in house; host or cells: Sf9 insect cells (baculovirus, pVL1393)", "T3 sequence (Q05769 18-604 V335I)": "T2 sequence (Q05769 18-604 V335A) with A318I", "format": "biochemical, murine", "conditions": "20 min pre-incubation, then 50 μM AA for 30 s", "experimental": "as §1, §2, §3, §4, §5"}}, "note": "Substitutions are numbered along the chain they refer to. pIC50: −log10 of the molar value."}
{"smiles": "COc1ccc2c(c1)c(CC(=O)O)cn2C(=O)c1ccc(Cl)cc1", "note": "[DM-INDO, 2-Des-methylindomethacin]", "values": [{"measurement": "inhibition of ovine COX-1", "setting": "wild type oCOX-1; concentrations up to 16 μM", "result": "does not appear to be inhibited at all"}, {"measurement": "inhibition in the time-dependent IC50 assay", "setting": "wild type oCOX-1; wild type oCOX-1", "result": "less than 20%"}, {"measurement": "pIC50", "setting": "wild type oCOX-1; wild type oCOX-1, 20 min pre-incubation, then 50 μM AA for 30 s", "result": "< 4.80"}, {"measurement": "inhibition in the time-dependent IC50 assay", "setting": "mCOX-2^V349A", "result": "less than 20%"}, {"measurement": "pIC50", "setting": "mCOX-2^V349A; 20 min pre-incubation, then 50 μM AA for 30 s", "result": "< 4.80"}, {"measurement": "pIC50", "setting": "mCOX-2^V349I", "result": 5.52}]}
